Here are results for six molecules from US12350253B2, “Use of cannabinoids in the treatment of dyskinesia associated with parkinson's disease” (Jazz Pharmaceuticals Research UK Limited, priority 2019, dated 2025).

Structures are written as SMILES. Entries after “also recorded” stand apart in the source; their conditions may differ.

The test system of series [1] is 6-hydroxydopamine rat model of Parkinson's disease. Conditions: oral coadministration of L-DOPA and rimonabant; cited from earlier work.
Another series concerns nigral neurons. Conditions: various experimental models of PD; cited from earlier work.
In series [2] the test system is L-DOPA-induced dyskinesia in Pitx3−/− mice. Description: L-DOPA-induced dyskinesia (AIMs), THCV co-administered daily with L-DOPA. It is filed as in vivo. Conditions: for duration of AIMs (three/four-paw dyskinetic movements): vs L-DOPA alone. As for the experimental part: Pitx3^−/− aphakia mice and their wildtype littermates, were genotyped using PCR amplification analysis of tail-tip DNA extracts. Mice were housed under a 12 h dark/light cycle with free access to food and water. They were used for experimental purposes at the age of 4-6 month-old (24-30 g of weight).
(§1) In a first experiment, animals were treated with an i.p. injection of 10 mg/kg of benserazide hydrochloride followed 20 minutes later by a second i.p. injection of 10 mg/kg of L-DOPA methyl ester. Separate groups of animals received equivalent injections with vehicle (saline) used as controls. Both L-DOPA- and vehicle-treated mice received, 10 minutes after the second injection, a third i.p. injection of THCV (2 mg/kg) or vehicle (Tween 80-saline). The same treatment schedule was repeated daily during approximately two weeks.
(§2) AIMs were assessed 30 and 60 min after L-DOPA administration. Dyskinesia was scored off-line by a blind rater based on video footage. Ratings were assessed for four minutes at each time point.
(§3) Total dyskinesia was rated by adding the duration in seconds of all three-paw and four-paw dyskinetic bouts. Additionally, on odd days, individual mice were placed in actimeters and motor activity was assessed following drug administration.
On Day 14, we evaluated AIMs every 20 min for 160 min after administering L-DOPA to determine the extinction of this response.

Series [3] relates to Pitx3−/− mice. Nature of the series: Locomotor activity (multicage activity meter). It is filed as in vivo. The protocol:
as §1
Horizontal and vertical activities were recorded, using a multicage activity meter system consisting of a set of 8 individual cages measuring 20×20×28 cm. Animals were introduced in the actimeter 60 minutes after L-DOPA injection and were assessed for 30 minutes. Horizontal movement was detected by 2 arrays of 16 infrared beams, whereas a third array positioned 4 cm above the floor detected vertical movement.
The software is capable of differentiating between repetitive interruptions of the same photobeam and interruptions of adjacent photobeams. The latter measure was used as an index of ambulatory activity.

Series [4] has as its system Pitx3−/− mice. Description: Rotarod test (motor coordination). The following applies: THCV co-administered with L-DOPA; after 12 days of daily treatment; vs L-DOPA. It is filed as in vivo. The protocol: as §1
Motor coordination was tested using a rotarod. The rotarod was set at a constant speed (10 revolutions per minute) and latency to fall from the rod was assessed. Cut off time was 180 seconds. Before testing, mice were previously habituated in one training session, as described previously.
A general note: The rotarod test checks motor coordination on a turning rod.

The next series concerns FosB. Nature of the series: FosB immunostaining in striatum. Conditions: chronic THCV with L-DOPA vs chronic L-DOPA. The format is in vivo, mice. As for the experimental part: (§4) Following behavioral analysis, animals were euthanized 1 hour after the last injection of L-DOPA. The brains were post-fixed for 24 h and were then transferred to a solution of 0.1 M phosphate buffer containing 0.02% sodium azide for storage at 4° C. To obtain regular blocks, brains were further immersed in 3% agarose and cut in coronal sections (30 μm thick) using a vibratome.
(§5) Immunostaining was carried out in free-floating sections using a standard avidin-biotin immunocytochemical protocol with the following rabbit antisera: (i) FosB (1:7500), and (ii) anti phospho(Ser10)-acetyl (Lys14)-Hystone 3 (pAcH3; 1:500).
(§6) After incubation with primary antibody (overnight), the sections were washed and incubated with biotinylated secondary anti-rabbit antibody (1:500) for 1 h at room temperature. After washing, the sections were incubated with streptavidin for 1 h and antibody staining was developed using DAB.
For immunostaining quantification in the completely denervated area, we used the Neurolucida software. […]
(§7) Regarding the quantification of FosB and pAcH3 immunoreactivity, it was carried out using an image analysis system.
For all sides, immunostaining intensity and number of immunolabeled nuclei were determined using five serial rostrocaudal sections per animal and three counting frames (dorsal, dorsolateral and lateral) per section (0.091 mm2 each frame). […]

The test system of series [5] is phospho(Ser10)-acetyl (Lys14)-Hystone 3 (pAcH3). Description: pAcH3 immunostaining in striatum. The format is in vivo, mice. The following applies: chronic THCV with L-DOPA vs chronic L-DOPA. As for the experimental part: as §4, §5, §6, §7
For all sides, immunostaining intensity and number of immunolabeled nuclei were determined using five serial rostrocaudal sections per animal and three counting frames (dorsal, dorsolateral and lateral) per section (0.091 mm2 each frame). Images were digitized with Leica microscope under 40× lens. Before counting, images were thresholded at a standardized grey-scale level. […]

Series [6] has as its system established L-DOPA-induced dyskinesia in Pitx3−/− mice. Nature of the series: Established L-DOPA-induced dyskinesia (AIMs), THCV started after about two weeks of L-DOPA. It is filed as in vivo. The following applies: 30 min after L-DOPA; for duration of L-DOPA-induced three/four-paw dyskinesia, established dyskinesia: THCV 2 mg/kg from day 14 after 13 days of L-DOPA, vs L-DOPA alone. As for the experimental part: In a second experiment, benserazide and L-DOPA (and their corresponding vehicles) were administered to mice following the same schedule than in the previous experiment, but THCV, again at the dose of 2 mg/kg, was given for the first time after approximately two weeks of daily benserazide/L-DOPA treatment, with the administration of the three compounds (and vehicles) extending for at least 3 days.
as §2, §3

In the next series the test system is parkinsonian rats. The following applies: acute treatment; cited from earlier work.
The mark [7] stands for this setting: THCV co-administered with L-DOPA, 60 min after L-DOPA, vs L-DOPA.

Take `Cc1c(C(=O)NN2CCCCC2)nn(-c2ccc(Cl)cc2Cl)c1-c1ccc(Cl)cc1` [rimonabant]: the “abnormal involuntary movements and dystonia” value in series [1] is “decreased abnormal involuntary movements and dystonia”.

As to `CCCCCc1cc(O)c2c(c1)OC(C)(C)[C@@H]1CCC(C)=C[C@@H]21` [THC, tetrahydrocannabinol], in the series with nigral neurons, the “protection of nigral neurons from death caused by different insults” value (shortened to “protection … by different insults”) is on record as “able to protect nigral neurons from death”.

On to `C=C(C)[C@@H]1CCC(C)=C[C@H]1c1c(O)cc(CCCCC)cc1O` [CBD, cannabidiol], for which, in the series on nigral neurons, the “protection … by different insults” value is recorded as “able to protect nigral neurons from death”.

Regarding `CCCCC/C=C\C/C=C\C/C=C\C/C=C\CCCC(=O)Nc1ccc(O)cc1` [AM404], the “protection … by different insults” value with nigral neurons was “able to protect nigral neurons from death”.

Take `CCCCCCC(C)(C)c1ccc([C@@H]2C[C@H](O)CC[C@H]2CCCO)c(O)c1` [CP55,940]: the “protection … by different insults” value with nigral neurons is “able to protect nigral neurons from death”.

On to `CCCc1cc(O)c2c(c1)OC(C)(C)[C@@H]1CCC(C)=C[C@@H]21` [THCV, tetrahydrocannabivarin], for which, in series [2] (30 min post-L-DOPA, THCV 2 mg/kg i.p. daily with L-DOPA 10 mg/kg i.p., except days 1 and 3), the “duration of AIMs (three/four-paw dyskinetic movements)” value is reported as “attenuates dyskinesia; also recorded: reduced the duration of AIMs”. Moreover, the “duration of AIMs (three/four-paw dyskinetic movements)” value in [2] (60 min post-L-DOPA, THCV 2 mg/kg i.p. daily with L-DOPA) was “to a lesser extent; also recorded: significant differences only at days 7 and 13 of treatment”. In series [2] (THCV 2 mg/kg i.p. alone, no L-DOPA), the “dyskinetic movements with THCV alone” value is “showed no dyskinetic movements”. In addition, the “dyskinesias score, acute co-treatment” value in [2] (day 1 of treatment, 30 min and 60 min, THCV 2 mg/kg with L-DOPA) was “decreases, but not significantly”. For the same molecule, the “time post-treatment up to which difference from L-DOPA alone remained (kinetic profile of AIMs)” value in [2] (last day of treatment, AIMs every 20 min over 160 min) was “up to 80 minutes”. In addition, in the series with Pitx3−/− mice [3] (THCV alone vs vehicle), the horizontal activity entry is listed as “no effect on the horizontal activity” and the vertical activity result is “did elevate vertical activity by itself”. Also, in the series on Pitx3−/− mice [3] (setting [7]), the horizontal activity result is “attenuating the elevated horizontal and vertical activities”; the vertical activity result is “attenuating the elevated horizontal and vertical activities”. Also, the “rotarod performance (latency to fall)” value in the series with Pitx3−/− mice [4] was “improved motor coordination in rotarod; also recorded: improved the deteriorated rotarod performance”. Further, in the series on FosB, the “immunostaining intensity of FosB-positive cells in striatum” value is “attenuates the immunostaining-intensity of FosB positive nuclei; also recorded: reduction affected both the number and the immunostaining intensity”; the “number of FosB-positive cells in striatum” value is “attenuates the increased expression of FosB-positive cells; also recorded: reduction affected both the number and the immunostaining intensity”. Also, in [5], the “immunostaining intensity of pAcH3-positive nuclei in striatum” value is “decreases the intensity of nuclei; also recorded: beneficial effects” and the “number of pAcH3-positive nuclei in striatum” value is on record as “only evident in the intensity of immunostained-nuclei”. In addition, the “persistence of the reduction of established dyskinesia” value in series [6] (THCV 2 mg/kg) was 3 days. Moreover, the “duration of L-DOPA-induced three/four-paw dyskinesia, established dyskinesia” value in series [6] is “significantly reduced dyskinesia”. In series [6] (listed as Δ9-THCV), the “duration of L-DOPA-induced three/four-paw dyskinesia, established dyskinesia” value is given as “active in reducing the duration of L-DOPA-induced three/four-paw dyskinesia”. In the series with parkinsonian rats, the motor inhibition entry is “efficacious in reducing motor inhibition” and the “potency in reducing motor inhibition relative to rimonabant” value is listed as “equivalent to rimonabant”.
